Results taken from the supplement of paper PMC10331698.
± gives the standard deviation of the averaged measurements.

Tests used:
Assay in all cases: level (log10 ratio to DMSO vehicle control); higher = higher biomarker level / cell amount than vehicle control
Conditions in all cases: in DMSO
[1] = compound: OCCC(F)(F)C(F)(F)C(F)(F)C(F)(F)C(F)(F)C(F)(F)F [6:2 Fluorotelomer alcohol]
Procedure: (§1)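 BioMAP Diversity Plus panel of 12 human primary cell co-culture systems (3C, 4H, LPS, SAg, BT, BF4T, BE3C, CASM3C, HDF3CGF, KF3CT, MyoF, Mphg). Compounds were added 1 h before stimulation and left for 24 h (MyoF 48 h; BT 72 h for soluble read-outs or 6 d for IgG). Biomarkers were read by ELISA, cytotoxicity by SRB, PBMC viability and proliferation by Alamar Blue. Each well value was divided by the mean of 8 DMSO control wells on the same plate and log10 transformed; duplicate blinded samples were tested at 4 concentrations.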

[2] = compound: C=CC(=O)OCC(F)(F)C(F)(F)C(F)(F)C(F)(F)C(F)(F)C(F)(F)C(F)(F)F [1H,1H-Perfluorooctyl acrylate]
Procedure: as §1

Heptafluorobutyramide = compound: NC(=O)C(F)(F)C(F)(F)C(F)(F)F [Heptafluorobutyramide]
Procedure: as §1

Pentafluoropropionamide = compound: NC(=O)C(F)(F)C(F)(F)F [Pentafluoropropionamide]
Procedure: as §1

[3] = compound: O=C(O)C(F)(F)C(F)(F)C(F)(F)OC(F)(C(F)(F)F)C(F)(F)F [Perfluoro-4-isopropoxybutanoic acid]
Procedure: as §1

[4] = compound: COC(=O)CCC(F)(F)C(F)(F)C(F)(F)C(F)(F)F [Methyl 2H,2H,3H,3H-perfluoroheptanoate]
Procedure: as §1

[5] = compound: FC(F)(F)C(F)(C(F)(F)F)C(F)(F)C(F)(F)CC1CO1 [3-(Perfluoro-3-methylbutyl)-1,2-propenoxide]
Procedure: as §1

Test System	level (log10) ([1]; 6700 nM)	level (log10) ([1]; 20000 nM)	level (log10) ([2]; 6700 nM)	level (log10) ([2]; 20000 nM)	level (log10) ([2]; 60000 nM)	level (log10) (Heptafluorobutyramide; 6700 nM)	level (log10) (Heptafluorobutyramide; 20000 nM)	level (log10) (Heptafluorobutyramide; 60000 nM)	level (log10) (Pentafluoropropionamide; 6700 nM)	level (log10) (Pentafluoropropionamide; 20000 nM)	level (log10) (Pentafluoropropionamide; 60000 nM)	level (log10) ([3]; 6700 nM)	level (log10) ([3]; 20000 nM)	level (log10) ([3]; 60000 nM)	level (log10) ([4]; 6700 nM)	level (log10) ([4]; 20000 nM)	level (log10) ([4]; 60000 nM)	level (log10) ([5]; 6700 nM)	level (log10) ([5]; 20000 nM)
CASM3C:Serum Amyloid A	-0.013 ± 0.0028	-0.009 ± 0.0042	0.03 ± 0.014	0.032 ± 0.044	0.0485 ± 0.013	-0.0555 ± 0.023	-0.0445 ± 0.042	-0.0065 ± 0.096	0.0045 ± 0.015	-0.0055 ± 0.0035	0.0245 ± 0.005	-0.0025 ± 0.0078	-0.0295 ± 0.013	0.0165 ± 0.081	0.009	-0.0065 ± 0.013	-0.0005 ± 0.022	-0.0235 ± 0.012	0.0035 ± 0.047
HDF3CGF:CCL2/MCP-1	0.0015 ± 0.0035	0.0095 ± 0.019	-0.0055 ± 0.018	-0.0235 ± 0.021	-0.046 ± 0.03	0.0005 ± 0.04	0.0055 ± 0.036	0.0185 ± 0.066	-0.024 ± 0.034	-0.0245 ± 0.012	-0.015 ± 0.031	0.013 ± 0.0028	0.0335 ± 0.019	0.0425 ± 0.0021	-0.039 ± 0.021	-0.0375 ± 0.06	-0.014 ± 0.014	-0.0175 ± 0.022	-0.004 ± 0.0099
HDF3CGF:CD54/ICAM-1	-0.01 ± 0.0071	-0.0075 ± 0.0064	-0.015 ± 0.0028	-0.037 ± 0.0042	-0.0545 ± 0.013	-0.0045 ± 0.021	0.0035 ± 0.0092	-0.001 ± 0.0099	-0.01 ± 0.052	0.017 ± 0.024	-0.0025 ± 0.0064	-0.009 ± 0.0071	-0.01 ± 0.0028	-0.031 ± 0.017	-0.0095 ± 0.0092	0.012 ± 0.0028	-0.0025 ± 0.028	-0.013 ± 0.021	-0.014 ± 0.041
HDF3CGF:CD106/VCAM-1	-0.0175 ± 0.063	-0.0145 ± 0.042	-0.016 ± 0.011	-0.031 ± 0.013	-0.097 ± 0.0057	0.0035 ± 0.0092	-0.012 ± 0.018	-0.0345 ± 0.054	-0.0335 ± 0.022	-0.0305 ± 0.025	-0.0225 ± 0.044	-0.027 ± 0.062	-0.0545 ± 0.067	-0.0545 ± 0.00071	-0.0395 ± 0.033	-0.0135 ± 0.053	-0.0235 ± 0.066	-0.0045 ± 0.012	-0.0245 ± 0.025
HDF3CGF:CXCL8/IL-8	0.004 ± 0.0028	0.004	0.0045 ± 0.0064	0.0045 ± 0.0064	0.0095 ± 0.0035	-0.003 ± 0.0057	0.002 ± 0.0014	0.0045 ± 0.012	-0.006 ± 0.0057	-0.0105 ± 0.00071	-0.0065 ± 0.013	0.0015 ± 0.00071	0.0135 ± 0.0035	0.0035 ± 0.0021	-0.006 ± 0.013	-0.01 ± 0.024	-0.0035 ± 0.0021	0.001 ± 0.013	0.006 ± 0.0028
HDF3CGF:CXCL9/MIG	-0.0015 ± 0.023	0.001 ± 0.0028	-0.0265 ± 0.0035	-0.029 ± 0.03	-0.0745 ± 0.0078	0.0055 ± 0.026	0.0035 ± 0.019	-0.0225 ± 0.025	-0.016 ± 0.0042	0.0095 ± 0.00071	0.0015 ± 0.0078	-0.0125 ± 0.023	0.0185 ± 0.005	0.009 ± 0.024	0.014	0.0255 ± 0.021	-0.0225 ± 0.013	0.0165 ± 0.012	0.0155 ± 0.016
HDF3CGF:CXCL10/IP-10	-0.009 ± 0.0099	-0.0295 ± 0.0092	-0.001 ± 0.0057	-0.0455 ± 0.022	-0.047	0.007 ± 0.0099	0 ± 0.0057	0.0035 ± 0.011	-0.0075 ± 0.022	-0.009 ± 0.011	0.006 ± 0.04	-0.0135 ± 0.0064	-0.029 ± 0.011	-0.0615 ± 0.0035	-0.011 ± 0.0085	0.006 ± 0.016	-0.026 ± 0.0071	0.003 ± 0.021	-0.034 ± 0.075
HDF3CGF:CXCL11/I-TAC	0.002 ± 0.0071	0.0155 ± 0.0035	-0.017 ± 0.011	-0.0275 ± 0.037	-0.063 ± 0.011	0.0015 ± 0.00071	-0.0015 ± 0.0092	-0.0305 ± 0.015	0.0135 ± 0.0035	0.0195 ± 0.018	0.022 ± 0.024	0.002 ± 0.021	0.008 ± 0.0042	-0.0025 ± 0.00071	-0.002 ± 0.013	0.0215 ± 0.0021	-0.0055 ± 0.011	-0.0005 ± 0.079	-0.0275 ± 0.087
HDF3CGF:Collagen I	-0.036 ± 0.057	-0.0445 ± 0.08	-0.0065 ± 0.05	0.0415 ± 0.005	0.0675 ± 0.05	0.0065 ± 0.011	-0.0025 ± 0.015	0.0155 ± 0.069	0.039 ± 0.075	0.0205 ± 0.033	0.055 ± 0.047	-0.0285 ± 0.067	-0.043 ± 0.078	0.032 ± 0.12	0.0615 ± 0.071	0.0465 ± 0.016	0.051 ± 0.041	0.003 ± 0.078	-0.0135 ± 0.15
HDF3CGF:Collagen III	0.001 ± 0.038	-0.014 ± 0.021	0.067 ± 0.035	0.042 ± 0.04	-0.0245 ± 0.084	-0.017 ± 0.014	-0.006 ± 0.013	-0.0145 ± 0.005	0.026 ± 0.02	0.009 ± 0.028	0.034 ± 0.0028	-0.02 ± 0.051	-0.0115 ± 0.011	-0.0025 ± 0.057	0.0065 ± 0.016	0.0095 ± 0.00071	0.0105 ± 0.015	-0.0295 ± 0.049	-0.049 ± 0.081
HDF3CGF:EGFR	0.0005 ± 0.012	0.006 ± 0.0099	0.0075 ± 0.012	0.0265 ± 0.019	-0.051 ± 0.093	0.0095 ± 0.059	0.0005 ± 0.046	-0.0155 ± 0.032	0.006 ± 0.0085	-0.005 ± 0.011	0.007 ± 0.021	-0.001 ± 0.034	-0.0035 ± 0.022	-0.012 ± 0.024	-0.0045 ± 0.0078	0.0105 ± 0.029	-0.0055 ± 0.053	-0.015 ± 0.0028	0.0035 ± 0.023
HDF3CGF:M-CSF	-0.009 ± 0.0099	-0.0075 ± 0.0021	0.0085 ± 0.015	-0.006 ± 0.0057	-0.053 ± 0.069	-0.0145 ± 0.00071	-0.009	0.0165 ± 0.035	0.0015 ± 0.011	-0.0135 ± 0.0035	0.0085 ± 0.06	-0.016 ± 0.0071	-0.0135 ± 0.0078	-0.0055 ± 0.005	-0.0125 ± 0.0064	-0.008 ± 0.013	0.002 ± 0.011	-0.0115 ± 0.018	-0.0145 ± 0.012
HDF3CGF:MMP-1	-0.0025 ± 0.00071	0.0015 ± 0.00071	0.013 ± 0.034	0.0425 ± 0.0078	0.0365 ± 0.019	0.004 ± 0.011	-0.01	0.001 ± 0.0057	0.006 ± 0.0085	-0.011 ± 0.0085	-0.01	-0.0055 ± 0.0035	0 ± 0.0028	-0.0015 ± 0.011	0 ± 0.011	-0.003 ± 0.018	-0.004 ± 0.025	0.0095 ± 0.012	-0.008 ± 0.024
HDF3CGF:PAI-I	-0.013 ± 0.014	-0.004 ± 0.013	0.032 ± 0.011	0.0515 ± 0.037	0.036 ± 0.069	-0.0105 ± 0.018	-0.0275 ± 0.028	-0.0125 ± 0.03	0.0125 ± 0.04	-0.011 ± 0.044	0 ± 0.014	-0.001 ± 0.033	-0.0115 ± 0.025	-0.0165 ± 0.013	0.0005 ± 0.0035	-0.0055 ± 0.0092	0.002 ± 0.021	-0.003 ± 0.028	0.0125 ± 0.015
HDF3CGF:Proliferation 72hr	-0.007 ± 0.05	0.0005 ± 0.086	0.0035 ± 0.0092	-0.056 ± 0.078	-0.168 ± 0.0092	0.0015 ± 0.088	0.016 ± 0.041	-0.0205 ± 0.053	0.0225 ± 0.018	0.045 ± 0.042	0.076 ± 0.013	0.0305 ± 0.037	0.04 ± 0.055	0.051 ± 0.011	0.011 ± 0.0057	0.013 ± 0.0057	0.0705 ± 0.044	0 ± 0.034	0.0055 ± 0.0078
